# Laboratory results as given in PubChem BioAssay AID743233 (The Scripps Research Institute Molecular Screening Center, 2013).
# Active and inactive are the calls of the source. The rule behind the calls is not given here.
# System: Galpha16-expressing cells, calcium fluorescence, counterscreen
# Test: nonselective Ga16 antagonists, potency, late-stage follow-up, counter-screen for TAAR1 agonist project, cell-based, fluorescence, dose response (AID 743233)
row,SMILES,IC50
1,NCc1c(O)ccc2ccccc12,> 29.9 µM (inactive)
2,Cc1cc(C)n(C(CC(=O)N2CCc3ccccc3C2)C(=O)O)n1 (stereo unspecified),> 29.9 µM (inactive)
3,Nc1nc(Nc2cccc(F)c2)nc2ccccc12,> 29.9 µM (inactive)
4,NC(N)=Nc1cc2ccccc2c2ccccc12,> 29.9 µM (inactive)
5,O=C(Nc1ccccc1)Nc1ccncc1,> 29.9 µM (inactive)
6,c1ccc(CCn2nnnc2C(c2cccs2)N2CCN(Cc3ccc4c(c3)OCO4)CC2)cc1 (stereo unspecified),> 29.9 µM (inactive)
7,OCCNc1nc(Nc2ccc(O)cc2)nc2ccccc12,> 29.9 µM (inactive)
8,c1ccc2c3c([nH]c2c1)CCNC3,> 29.9 µM (inactive)
9,O=C(CCN1CCC(c2ccccc2)C1)c1cccs1 (stereo unspecified),> 29.9 µM (inactive)
10,O=C(Nc1cccnc1)Nc1cccc(F)c1,> 29.9 µM (inactive)
11,O=C(CCN1CCC(c2ccccc2)C1)c1ccc2c(c1)OCCO2 (stereo unspecified),> 29.9 µM (inactive)
12,Cc1cc(N(C)C)nc(Nc2ccccc2)n1,> 29.9 µM (inactive)
13,Cc1ccc(NC(=O)CCN2CCc3ccccc3C2)cc1,> 29.9 µM (inactive)
14,CC(=NCCc1ccccc1)C1CCOC1=O (stereo unspecified),> 29.9 µM (inactive)
15,c1ccc(CCN2CN(CCCN3CCOCC3)c3nc4ccccc4n3C2)cc1,> 29.9 µM (inactive)
16,CCOC(=O)C(NC(C)=O)(N1CCc2ccccc2C1)C(F)(F)F (stereo unspecified),> 29.9 µM (inactive)

row,SMILES,IC50
1,O=C(C(=O)N1CCc2ccccc2C1)c1cn(CC(=O)N2CCCCC2)c2ccccc12,> 29.9 µM (inactive)
2,O=C(Nc1cccc2ccccc12)N1CCc2ccccc2C1,> 29.9 µM (inactive)
3,c1ccc2c(c1)CCN(c1nc3cc4c(cc3s1)OCO4)C2,> 29.9 µM (inactive)
4,O=C(CCN1CCc2ccccc2CC1)c1ccc2c(c1)OCCO2,> 29.9 µM (inactive)
5,OCCNc1nc(Nc2cccc(O)c2)nc2ccccc12,> 29.9 µM (inactive)
6,COc1cc(C(=O)CCN2CCC(c3ccccc3)C2)cc(OC)c1OC (stereo unspecified),> 29.9 µM (inactive)
7,NC(N)=NN=Cc1c(Cl)cccc1Cl,> 29.9 µM (inactive)
8,Nc1nc(Nc2ccccc2)nc2ccccc12,> 29.9 µM (inactive)
9,CC1(C)CCCN(C(=O)c2coc(=O)c(Br)c2)C1,> 29.9 µM (inactive)
10,O=C(Nc1ccncc1)Nc1ccc(F)cc1,> 29.9 µM (inactive)
11,O=C(CCCCl)N1CCc2[nH]c3ccccc3c2C1,> 29.9 µM (inactive)
12,CC(=C1C(=O)c2ccccc2C1=O)N1CCc2ccccc2C1,> 29.9 µM (inactive)
13,O=c1[nH]cc(NCCc2ccccc2)c(=O)[nH]1,> 29.9 µM (inactive)
14,Cc1[nH]c2ccccc2c1CN1CCc2ccccc2C1,> 29.9 µM (inactive)
15,CCOC(=O)C(NC(=O)CC)(N1CCc2ccccc2C1)C(F)(F)F (stereo unspecified),> 29.9 µM (inactive)
